Holding throughout (assay type): functional
The test system of assay [1] is Escherichia coli. Put plainly: Antimicrobial activity against Escherichia coli TOP10 harboring pSmQnr4 carrying Smqnr gene by Etest.
Assay [2] has as its system Escherichia coli. Put plainly: Antimicrobial activity against Escherichia coli TOP10 harboring pSmQnr6 carrying Smqnr gene by Etest.
Assay [3] deals with Escherichia coli. The experiment in a line: Antimicrobial activity against Escherichia coli TOP10 harboring pSmQnr3 carrying Smqnr gene by Etest.
For assay [4], the system named is Escherichia coli. Put plainly: Antimicrobial activity against Escherichia coli TOP10 by Etest.
Assay [5] has as its system Escherichia coli. The experiment in a line: Antimicrobial activity against Escherichia coli TOP10 harboring pSmQnr1 carrying Smqnr gene by Etest.
The subject of assay [6] is Escherichia coli. Put plainly: Antimicrobial activity against Escherichia coli TOP10 harboring pSmQnr10 carrying Smqnr gene by Etest.
Assay [7] concerns Escherichia coli. Put plainly: Antimicrobial activity against Escherichia coli TOP10 harboring pSmQnr7 carrying Smqnr gene by Etest.
Assay [8] concerns Escherichia coli. The experiment in a line: Antimicrobial activity against Escherichia coli TOP10 harboring pSmQnr2 carrying Smqnr gene by Etest.
In assay [9] the test system is Escherichia coli. The experiment in a line: Antimicrobial activity against Escherichia coli TOP10 harboring pSmQnr8 carrying Smqnr gene by Etest.
The test system of assay [10] is Escherichia coli. Put plainly: Antimicrobial activity against Escherichia coli TOP10 harboring pSmQnr5 carrying Smqnr gene by Etest.
The subject of assay [11] is Escherichia coli. Put plainly: Antimicrobial activity against Escherichia coli TOP10 harboring pSmQnr9 carrying Smqnr gene by Etest.
For assay [12], the system named is Escherichia coli. The experiment in a line: Antimicrobial activity against Escherichia coli TOP10 harboring pSmQnr11 carrying Smqnr gene by Etest.

Molecules are shown by their SMILES. In brackets after ≈: the same amount, converted by molar mass. Bounds are passed on as bounds.

In general, MIC refers to the least concentration at which growth counts as inhibited. Low readings indicate greater potency, high ones weaker potency. `C[C@H]1COc2c(N3CCN(C)CC3)c(F)cc3c(=O)c(C(=O)O)cn1c23.C[C@H]1COc2c(N3CCN(C)CC3)c(F)cc3c(=O)c(C(=O)O)cn1c23.O` [LEVOFLOXACIN]: the MIC in [1] was determined as 0.006 mg/L; in assay [2], 0.023 mg/L; in [3], 0.006 mg/L; in assay [4], 0.004 mg/L; in assay [5], 0.023 mg/L; in assay [6], 0.023 mg/L. In [7], the MIC stood at 0.023 mg/L.
With `CCn1cc(C(=O)O)c(=O)c2cc(F)c(N3CCNCC3)cc21` [NORFLOXACIN], the MIC in [8] is 0.047 mg/L (≈ 0.147 µM); in assay [1] it was 0.032 mg/L (≈ 0.1 µM); in [2], 0.064 mg/L (≈ 0.2 µM); in assay [3], 0.032 mg/L (≈ 0.1 µM); in assay [4], 0.032 mg/L (≈ 0.1 µM); in [9] it was 0.047 mg/L (≈ 0.147 µM). In addition, the minimal inhibitory concentration (MIC) was found to be 0.032 mg/L (≈ 0.1 µM) in assay [10]; 0.064 mg/L (≈ 0.2 µM) in [5]; 0.032 mg/L (≈ 0.1 µM) in assay [6]; 0.047 mg/L (≈ 0.147 µM) in [7]; 0.032 mg/L (≈ 0.1 µM) in [11]; 0.032 mg/L (≈ 0.1 µM) in assay [12].
Regarding `COc1c(N2C[C@@H]3CCCN[C@@H]3C2)c(F)cc2c(=O)c(C(=O)O)cn(C3CC3)c12` [MOXIFLOXACIN], the MIC in assay [1] was 0.002 mg/L (≈ 0.00498 µM); in assay [2], 0.047 mg/L (≈ 0.117 µM); in assay [3], 0.002 mg/L (≈ 0.00498 µM); in [4] it was less than 0.002 mg/L; in [9] it was 0.002 mg/L (≈ 0.00498 µM); in assay [10], 0.003 mg/L (≈ 0.00747 µM). Moreover, the minimal inhibitory concentration (MIC) in [5] stood at 0.012 mg/L (≈ 0.0299 µM); in assay [6], 0.004 mg/L (≈ 0.00996 µM); in assay [7], 0.008 mg/L (≈ 0.0199 µM); in assay [12], 0.002 mg/L (≈ 0.00498 µM).
Turning to `COc1c(N2CCNC(C)C2)c(F)cc2c(=O)c(C(=O)O)cn(C3CC3)c12` (stereo unspecified) [GATIFLOXACIN], the MIC in [1] is 0.002 mg/L (≈ 0.00533 µM); in assay [2] it was 0.064 mg/L (≈ 0.17 µM); in assay [3], 0.003 mg/L (≈ 0.00799 µM); in [4], less than 0.002 mg/L; in assay [9] it was 0.002 mg/L (≈ 0.00533 µM); in assay [5] it was 0.008 mg/L (≈ 0.0213 µM). In addition, the MIC in assay [6] was determined as 0.003 mg/L (≈ 0.00799 µM); in assay [7] it was 0.023 mg/L (≈ 0.0613 µM); in assay [11], 0.002 mg/L (≈ 0.00533 µM); in assay [12], 0.003 mg/L (≈ 0.00799 µM).
With `C[C@@H]1CN(c2c(F)c(N)c3c(=O)c(C(=O)O)cn(C4CC4)c3c2F)C[C@H](C)N1` [SPARFLOXACIN], the minimal inhibitory concentration (MIC) in assay [2] was 0.125 mg/L (≈ 0.319 µM); in assay [4] it was less than 0.002 mg/L; in assay [5], 0.004 mg/L (≈ 0.0102 µM); in assay [6] it was 0.002 mg/L (≈ 0.0051 µM); in assay [7], 0.008 mg/L (≈ 0.0204 µM).
`CCn1cc(C(=O)O)c(=O)c2ccc(C)nc21` [NALIDIXIC ACID]: the MIC in assay [8] amounted to 2 mg/L (≈ 8.61 µM); in assay [1], 1.5 mg/L (≈ 6.46 µM); in assay [2], 2 mg/L (≈ 8.61 µM); in [3] it was 1.5 mg/L (≈ 6.46 µM); in [4], 1.5 mg/L (≈ 6.46 µM); in [9] it was 2 mg/L (≈ 8.61 µM). Besides, the MIC amounted to 2 mg/L (≈ 8.61 µM) in assay [10]; 3 mg/L (≈ 12.9 µM) in assay [5]; 2 mg/L (≈ 8.61 µM) in assay [6]; 2 mg/L (≈ 8.61 µM) in assay [7]; 1.5 mg/L (≈ 6.46 µM) in assay [11]; 2 mg/L (≈ 8.61 µM) in assay [12].

These data come from ChEMBL document CHEMBL1275505, “Smqnr, a new chromosome-carried quinolone resistance gene in Stenotrophomonas maltophilia” (2008).
